Experimental data as given in US20040166137A1, “Hetero-substituted benzimidazole compounds and antiviral uses thereof” (priority 2002, published 2004).
Read-outs that look alike come from different tables or passages of the source.

What was measured:
RSV = test: Antiviral assay (PRA): inhibition of RSV syncytial plaque formation on Hep2 cell monolayers; type: cell-based; conditions: human respiratory syncytial virus, read-out: PRA (IC50)
Description: The lower the observed level of fusion, the greater the antiviral activity of the compound was determined to be. Uninfected confluent monolayers (seeded at 2.2×10^4 cells/well) of Hep2 cells were grown in microtiter wells (96-well plates) in EMEM (Eagle Minimum Essential Medium w/o L-glutamine [Bio Whittaker Cat. […] Bio Whittaker Cat. No. 14-[…]), antibiotics (penicillin/streptomycin; Bio Whittaker Cat. […] The plates were incubated for 24 hours and used for antiviral assays and cytotoxicity assays. To prepare Hep2 cells for addition to uninfected cells, cultures of […] infected Hep2 cells were washed with DPBS (Dulbecco's Phosphate Buffered Saline w/o calcium or magnesium; Bio Whittaker Cat. […] Gibco Life Technologies Cat. No. 15040-017). The cells were spun for 10 minutes and resuspended in 3% FBS. Cell counts were performed using a hemacytometer. Persistent cells were added to the uninfected Hep2 cells. The antiviral assay was conducted by first removing all medium from the wells containing uninfected Hep2 cells, adding 100 μl complete EMEM, then adding hetero-substituted benzimidazole compounds (eight 3-fold dilutions with 20 μM concentration as the highest final concentration) in 50 μl complete EMEM. Approximately 50 […] plaque forming units (PFU) of RSV in 50 μl was added per well and the plates were incubated in a CO2 incubator at 37° C. for 48 hours. Each plate contained uninfected control wells and infected untreated control wells for calculation of % inhibition (EC50) for each concentration. After incubation, cells in control wells were checked for fusion centers, medium was removed from the wells followed by addition to each well of either Crystal Violet stain or XTT. With respect to Crystal Violet, approximately 50μl 0.25% Crystal Violet stain in methanol was added to each well. The wells were rinsed immediately, to remove excess stain, and were allowed to dry. The number of syncytia per well were then counted, using a dissecting microscope. For antiviral assays at 48 hours post infection, cells in control wells were checked for syncytial plaques. Medium was removed from the wells followed by addition of approximately 50 Al Crystal Violet stain (0.25% Crystal Violet, 0.25% Giemsa dissolved in 10% formaldehyde, 70% methanol, and 20% H2O). The wells were incubated at room temperature for 5 minutes, rinsed with H2O to remove excess stain, and allowed to dry. The number of syncytia per well were counted using a dissecting microscope. The 50% inhibitory concentration (EC50) for each compound was calculated from the dose response curve. The compounds listed in Tables 1-2 have been screened for inhibitory activity against RSV.

[1] = XTT cytotoxicity assay on uninfected Hep2 cells; type: cell-based; conditions: human
Description: Uninfected confluent monolayers (seeded at 2.2×10^4 cells/well) of Hep2 cells were grown in microtiter wells (96-well plates) in EMEM (Eagle Minimum Essential Medium w/o L-glutamine [Bio Whittaker Cat. No. 12-125F] with 3% fetal bovine serum (FBS; which had been heat inactivated for 30 minutes at 56° C.; Bio Whittaker Cat. No. 14-501F), antibiotics (penicillin/streptomycin; Bio Whittaker Cat. No. 17-602E) added at 1%, and glutamine added at 1% (complete EMEM). The plates were incubated for 24 hours and used for antiviral assays and cytotoxicity assays.
Cytotoxicity assays were conducted by first removing all medium from the well containing uninfected Hep2 cells, adding 100 μl complete EMEM, and then adding hetero-substituted benzimidazole compounds (eight 3-fold dilutions with 100 μM concentration as the highest final concentration). Complete EMEM (50 μl) was added to each well instead of virus and the plates were incubated in a CO2 incubator at 37° C. for 48 hours.
At 48 hours, the cytotoxicity assays were developed by adding to each well 50 μl of XTT (1 mg/ml in PBS) containing 0.01-0.02 mM of the electron coupling agent phenazine methosulfate (PMS). The plates were incubated for 2-4 hours at 37° C. and then read in a 96-well plate reader at 450 nm. Plotting the % average OD of treated wells compared to the cell control vs. compound concentration generated dose response curves. CC50 (50% inhibitory cytotoxic concentration) values for each compound were then calculated from these curves. […]

[2] = HEp-2, Table 1, RSV-infected Hep2 cells, 48 hours, syncytia counted
[3] = HEp-2, Table 2, RSV-infected Hep2 cells, 48 hours, syncytia counted

Structure (SMILES)	IC50 (RSV; HEp-2, 48 h)	CC50 at 48 h ([1]; Table 1, uninfected Hep2 cells, 48 hours, read-out: XTT (CC50))	IC50 (RSV; [2])	CC50 at 48 h [1]	IC50 (RSV; [3])
OCCN(CCO)CCNCc1nc2cccnc2n1Cc1nc2ccccc2[nH]1 [compound 1, 2-[(2-{[3-(1H-Benzoimidazol-2-ylmethyl)-3H-imidazo[4,5-b]pyridin-2-ylmethyl]-amino}-ethyl)-(2-hydroxy-ethyl)-amino]-ethanol]	160 nM	≥ 100000 nM	–	–	–
c1ccc2[nH]c(Cn3c(CNCCN4CCOCC4)nc4cccnc43)nc2c1 [compound 2, [3-(1H-Benzoimidazol-2-ylmethyl)-3H-imidazo[4,5-b]pyridin-2-ylmethyl]-(2-morpholin-4-yl-ethyl)-amine]	–	–	240 nM	≥ 100000 nM	–
COCCN(C)Cc1nc2cccnc2n1Cc1nc2ccccc2[nH]1 [compound 3, [3-(1H-Benzoimidazol-2-ylmethyl)-3H-imidazo[4,5-b]pyridin-2-ylmethyl]-(2-methoxy-ethyl)-methyl-amine]	–	–	150 nM	≥ 100000 nM	–
c1ccc2[nH]c(Cn3c(CNCCCN4CCOCC4)nc4cccnc43)nc2c1 [compound 4, [3-(1H-Benzoimidazol-2-ylmethyl)-3H-imidazo[4,5-b]pyridin-2-ylmethyl]-(3-morpholin-4-yl-propyl)-amine]	–	–	190 nM	≥ 100000 nM	–
CN1CCN(CCCNCc2nc3cccnc3n2Cc2nc3ccccc3[nH]2)CC1 [compound 5, [3-(1H-Benzoimidazol-2-ylmethyl)-3H-imidazo[4,5-b]pyridin-2-ylmethyl]-[3-(4-methyl-piperazin-1-yl)-propyl]-amine]	–	–	9 nM	≥ 100000 nM	–
OCCN(CCO)CCCNCc1nc2cccnc2n1Cc1nc2ccccc2[nH]1 [compound 6, 2-[(3-{[3-(1H-Benzoimidazol-2-ylmethyl)-3H-imidazo[4,5-b]pyridin-2-ylmethyl]-amino}-propyl)-(2-hydroxy-ethyl)-amino]-ethanol]	–	–	190 nM	≥ 100000 nM	–
c1ccc2[nH]c(Cn3c(CNC4CCCC4)nc4cccnc43)nc2c1 [compound 7, [3-(1H-Benzoimidazol-2-ylmethyl)-3H-imidazo[4,5-b]pyridin-2-ylmethyl]-cyclopentyl-amine]	–	–	4 nM	≥ 100000 nM	–
CC(C)N(Cc1ccccc1)Cc1nc2cccnc2n1Cc1nc2ccccc2[nH]1 [compound 8, [3-(1H-Benzoimidazol-2-ylmethyl)-3H-imidazo[4,5-b]pyridin-2-ylmethyl]-benzyl-isopropyl-amine]	–	–	5 nM	≥ 100000 nM	–
CC(C)N(C)Cc1nc2cccnc2n1Cc1nc2ccccc2[nH]1 [compound 9, [3-(1H-Benzoimidazol-2-ylmethyl)-3H-imidazo[4,5-b]pyridin-2-ylmethyl]-isopropyl-methyl-amine]	–	–	3 nM	≥ 100000 nM	–
CC(C)N(Cc1nc2cccnc2n1Cc1nc2ccccc2[nH]1)C(C)C [compound 12, [3-(1H-Benzoimidazol-2-ylmethyl)-3H-imidazo[4,5-b]pyridin-2-ylmethyl]-diisopropyl-amine]	–	–	5 nM	≥ 100000 nM	–
c1ccc2[nH]c(Cn3c(CN4CCOCC4)nc4cccnc43)nc2c1 [compound 13, 3-(1H-Benzoimidazol-2-ylmethyl)-2-morpholin-4-ylmethyl-3H-imidazo[4,5-b]pyridine]	–	–	–	≥ 100000 nM	1 nM
FC(F)(F)c1ccc(N2CCN(Cc3nc4cccnc4n3Cc3nc4ccccc4[nH]3)CC2)cc1 [compound 14, 3-(1H-Benzoimidazol-2-ylmethyl)-2-[4-(4-trifluoromethyl-phenyl)-piperazin-1-ylmethyl]-3H-imidazo[4,5-b]pyridine]	–	–	–	≥ 100000 nM	5 nM
Oc1cc2c(cc1O)CN(Cc1nc3cccnc3n1Cc1nc3ccccc3[nH]1)CC2 [compound 15, 2-[3-(1H-Benzoimidazol-2-ylmethyl)-3H-imidazo[4,5-b]pyridin-2-ylmethyl]-1,2,3,4-tetrahydro-isoquinoline-6,7-diol]	–	–	–	≥ 100000 nM	13 nM
c1ccc2[nH]c(Cn3c(CN4CCNCC4)nc4cccnc43)nc2c1 [compound 16, 3-(1H-Benzoimidazol-2-ylmethyl)-2-piperazin-1-ylmethyl-3H-imidazo[4,5-b]pyridine]	–	–	–	≥ 100000 nM	120 nM
O=C(Cc1ccccc1)N1CCN(Cc2nc3cccnc3n2Cc2nc3ccccc3[nH]2)CC1 [compound 17, 1-{4-[3-(1H-Benzoimidazol-2-ylmethyl)-3H-imidazo[4,5-b]pyridin-2-ylmethyl]-piperazin-1-yl}-2-phenyl-ethanone]	–	–	–	≥ 100000 nM	20 nM
CC(=O)N1CCN(Cc2nc3cccnc3n2Cc2nc3ccccc3[nH]2)CC1 [compound 18, 1-{4-[3-(1H-Benzoimidazol-2-ylmethyl)-3H-imidazo[4,5-b]pyridin-2-ylmethyl]-piperazin-1-yl}-ethanone]	–	–	–	≥ 100000 nM	4 nM
Cn1cnc(S(=O)(=O)N2CCN(Cc3nc4cccnc4n3Cc3nc4ccccc4[nH]3)CC2)c1 [compound 19, 3-(1H-Benzoimidazol-2-ylmethyl)-2-[4-(1-methyl-1H-imidazole-4-sulfonyl)-piperazin-1-ylmethyl]-3H-imidazo[4,5-b]pyridine]	–	–	–	≥ 100000 nM	–
O=C(Nc1ccc2c(c1)OCCCO2)N1CCN(Cc2nc3cccnc3n2Cc2nc3ccccc3[nH]2)CC1 [compound 20, 4-[3-(1H-Benzoimidazol-2-ylmethyl)-3H-imidazo[4,5-b]pyridin-2-ylmethyl]-piperazine-1-carboxylic acid (3,4-dihydro-2H-benzo[b][1,4]dioxepin-7-yl)-amide]	–	–	–	≥ 100000 nM	5 nM
O=C(c1ccco1)N1CCN(Cc2nc3cccnc3n2Cc2nc3ccccc3[nH]2)CC1 [compound 21, {4-[3-(1H-Benzoimidazol-2-ylmethyl)-3H-imidazo[4,5-b]pyridin-2-ylmethyl]-piperazin-1-yl}-furan-2-yl-methanone]	–	–	–	≥ 100000 nM	13 nM
OCC1CCCN1Cc1nc2cccnc2n1Cc1nc2ccccc2[nH]1 (stereo not drawn) [compound 22, {1-[3-(1H-Benzoimidazol-2-ylmethyl)-3H-imidazo[4,5-b]pyridin-2-ylmethyl]-pyrrolidin-2-yl}-methanol]	–	–	–	≥ 100000 nM	2 nM
OCCC1CCCCN1Cc1nc2cccnc2n1Cc1nc2ccccc2[nH]1 (stereo not drawn) [compound 23, 2-{1-[3-(1H-Benzoimidazol-2-ylmethyl)-3H-imidazo[4,5-b]pyridin-2-ylmethyl]-piperidin-2-yl}-ethanol]	–	–	–	≥ 100000 nM	10 nM
c1ccc2c(c1)CN(Cc1nc3cccnc3n1Cc1nc3ccccc3[nH]1)C2 [compound 27, 3-(1H-Benzoimidazol-2-ylmethyl)-2-(1,3-dihydro-isoindol-2-ylmethyl)-3H-imidazo[4,5-b]pyridine]	–	–	–	≥ 100000 nM	20 nM
Cc1cc(S(=O)(=O)N2CCN(Cc3nc4cccnc4n3Cc3nc4ccccc4[nH]3)CC2)c(C)s1 [compound 28, 3-(1H-Benzoimidazol-2-ylmethyl)-2-[4-(2,5-dimethyl-thiophene-3-sulfonyl)-piperazin-1-ylmethyl]-3H-imidazo[4,5-b]pyridine]	–	–	–	≥ 100000 nM	16 nM
